Where two headings read alike, the source gives them in different places.

One may read the logP as the decadic logarithm of the partition coefficient of the neutral form, usually between octanol and water. As usually defined, the mortality is the share of the test organisms that died.

Data set [1] is described as follows: logP (acidic) / lgP (HCOOH), phys. data. The data set is classed as physicochemical. The note with it: for logP: acidic; for lgP (HCOOH): preparation examples, b176 prints logP (HCOOH).
Another data set concerns Myzus persicae. As to the kind of experiment: Myzus persicae - test (spray application). The data set is classed as in vivo. The note with it: read-out: activity (mortality in %). The method, then: Myzus persicae - test; (spray application)
(§1) To produce a suitable preparation of active compound, 1 part by weight of active compound is mixed with the stated amount of solvent and emulsifier, and the concentrate is diluted with emulsifier-containing water to the desired concentration.
Chinese cabbage (Brassica pekinesis) leaf-disks infected with all instars of the green peach aphid (Myzus persicae), are sprayed with a preparation of the active ingredient at the desired concentration.
After the specified period of time, mortality in % is determined, 100% means that all aphids have been killed; 0% means that none of the aphids have been killed, […]

Another data set has as its system Phaedon cochleariae. In words: Phaedon cochleariae - test (spray application). The data set is classed as in vivo. The settings on record: application rate of 500 g/ha, Chinese cabbage leaf-disks, mustard beetle larvae. The method, then:
Phaedon cochlearlae - test (spray application)
To produce a suitable preparation of active compound, I part by weight of active compound is mixed with the stated amount of solvent and emulsifier, and the concentrate is diluted with emulsifier-containing water to the desired concentration.
Chinese cabbage (Brassica pekinesis) leaf-disks are treated by being sprayed with the preparation of the active compound of the desired concentration and are, after drying, infested with mustard beetle larvae (Phaedon cochleariae).
After the specified period of time, mortality in % is determined, 100 % means that all the beetle larvae have been killed; 0 % means that none of the beetle larvae have been killed.

For the next data set, the system named is Tetranychus urticae. In words: Tetranychus urticae - test; OP-resistant (spray application). Format: in vivo. The note with it: application rate of 100 g/ha, French bean, all stages. The method, then: Tetranychus urticae - test; OP-resistant (spray application)
as §1
French bean (Phaseolus vulgaris) which are heavily infested with all stages of the two spotted spidermite (Tetranychus urticae), are sprayed with a preparation of the active ingredient at the desired concentration.
After the specified period of time, mortality in % is determined, 100% means that all spider mites have been killed and 0% means that none of the spider mites have been killed.

The mark [2] stands for this setting: Table I-1, read-out: Phys. data = logP (acidic).
[3] abbreviates: application rate of 500 g/ha, spray application, Chinese cabbage leaf-disks, all instars of the green peach aphid.

Regarding `CC(C)=CCNC(=S)N1CCOC1=N[C@H]1CCc2ccccc21` [1-72], the logP in data set [1] (setting [2]) came to 4.78.
Regarding `S=C(NCc1ccc(Cl)nc1)N1CCOC1=N[C@H]1CCc2ccccc21` [1-40], the logP in data set [1] (setting [2]) came to 4.04.
Consider `S=C(NCCc1ccc(Cl)cc1)N1CCOC1=N[C@H]1CCc2ccccc21` [1-38], for which the log partition coefficient (logP) in data set [1] (setting [2]) was determined as 5.25. Further, the mortality at 500 g/ha with Myzus persicae (setting [3]) is no less than 80%.
As for `S=C(NCc1ccccc1)N1CCOC1=NC1CCc2ccccc21` (centres unmarked) [1-1], the logP in data set [1] (setting [2]) is 4.46. The mortality at 500 g/ha with Myzus persicae (setting [3]) was no less than 80%.
Regarding `S=C(NCc1ccc2c(c1)OCO2)N1CCOC1=N[C@H]1CCc2ccccc21` [1-22], the logP in data set [1] (setting [2]) turned out to be 4.11. Moreover, the mortality at 500 g/ha in the data set on Phaedon cochleariae and in the data set with Myzus persicae (setting [3]) was no less than 80% in each case.
Regarding `CC(NC(=S)N1CCOC1=NC1CCc2ccccc21)c1ccc(F)cc1` (centres unmarked) [1-36], the logP in data set [1] (setting [2]) was 4.91. Further, the mortality at 500 g/ha in the data set with Myzus persicae (setting [3]) is no less than 80%.
As for `S=C(NCc1ccc(Cl)cc1Cl)N1CCOC1=N[C@H]1CCc2ccccc21` [1-27], the logP in data set [1] (setting [2]) was found to be 5.65. Also, the mortality at 500 g/ha with Phaedon cochleariae and with Myzus persicae (setting [3]) was no less than 80% each time.
In the case of `S=C(NCCc1cccc(Cl)c1)N1CCOC1=N[C@H]1CCc2ccccc21` [1-39], in data set [1] (setting [2]), the logP was 5.19. Besides, the mortality at 500 g/ha in the data set on Phaedon cochleariae and with Myzus persicae (setting [3]) was no less than 80% in each case.
Take `S=C(NCc1ccco1)N1CCOC1=N[C@H]1CCc2ccccc21` [1-45]: the lipophilicity (logP) in data set [1] (setting [2]) was found to be 4.17.
Turning to `CC(NC(=S)N1CCOC1=N[C@H]1CCc2ccccc21)c1cccc(Cl)c1` (some centres unmarked) [1-35], in data set [1] (setting [2]), the logP was found to be 5.31. Further, the mortality at 500 g/ha in the data set on Phaedon cochleariae and in the data set on Myzus persicae (setting [3]) was no less than 80% throughout.
Consider `CC(NC(=S)N1CCSC1=NC1CCc2c(F)cccc21)c1ccccc1` (centres unmarked) [2-31, 2-[aza(4-fluorindanyl)-methylene](1,3-thiazolidine-3-yl)(alphamethylbenzylamino)methane-1-thione], for which, in data set [1] (Table I-2, key logP (acidic) is printed only in the head of Table I-1), the Phys. data is 5.47. Also, the logP in data set [1] (preparation example 3, text, read-out: logP (acidic)) came out at 5.47.
In the case of `S=C(NCc1ncccn1)N1CCOC1=N[C@H]1CCc2ccccc21` [1-71], in data set [1] (setting [2]), the logP was 2.92.
`S=C(NCc1cccc(Cl)c1)N1CCOC1=N[C@H]1CCc2ccccc21` [1-20]: the logP in data set [1] (setting [2]) was 4.97. Further, the mortality at 500 g/ha in the data set with Myzus persicae (setting [3]) is no less than 80%.
Taken in the same sequence, the figures for `CC(NC(=S)N1CCOC1=N[C@H]1CCc2ccccc21)c1ccccc1Cl` (some centres unmarked) [1-32] were 5.31 and no less than 80%.
Take `Cc1ccc(CNC(=S)N2CCOC2=N[C@H]2CCc3ccccc32)cc1` [1-23]: the logP in data set [1] (setting [2]) worked out at 4.91. In the data set with Myzus persicae (setting [3]), the mortality at 500 g/ha was no less than 80%.
Molecule `S=C(NCc1ccccc1)N1CCOC1=N[C@H]1CCCc2ccccc21` [3-2, N-benzyl-2-[(1S)-1,2,3,4-tetrahydronaphthaline-1-ylimino]-1,3-oxazolidine-3-carbothioamide] displayed a Phys. data in data set [1] (Table I-3, logP (HCOOH), i.e. acidic conditions) of 4.67. For the same molecule, the “lgP (HCOOH)” value in data set [1] is given as 4.67. Further, the mortality at 500 g/ha in the data set on Myzus persicae (in Brassica rapa) is no less than 80%.
For `COc1ccc(CNC(=S)N2CCOC2=N[C@H]2CCc3ccccc32)cc1OC` [1-26], the logP in data set [1] (setting [2]) stood at 3.8. In the data set with Myzus persicae (setting [3]), the mortality at 500 g/ha is no less than 80%.
Taken in the same sequence, the figures for `COc1ccc(CNC(=S)N2CCOC2=N[C@H]2CCc3ccccc32)cc1` [1-25] were 4.28 and no less than 80%.
For `C=CCNC(=S)N1CCOC1=NC1CCc2ccccc21` (centres unmarked) [1-47], in that order: 3.85 and no less than 80%.
Turning to `C=CCNC(=O)N1CCOC1=NC1CCc2ccccc21` (centres unmarked) [1-48], the logP in data set [1] (setting [2]) is 3.85.
For the molecule `S=C(NCc1ccccc1)N1CCOC1=N[C@H]1CCc2ccccc21` [1-2, N-benzyl-2-[(1S)-2,3-dihydro-1H-inden-1-ylimino]-1,3-oxazolidiner3-carbothioamide], the logP in data set [1] (setting [2]) was determined as 4.46. Further, the “lgP (HCOOH)” value in data set [1] is given as 4.46. Besides, the mortality at 100 g/ha in the data set on Tetranychus urticae was no less than 80%. Further, the mortality at 500 g/ha in the data set on Myzus persicae (setting [3]) was no less than 80%.
As to `Fc1ccc(CNC(=S)N2CCOC2=N[C@H]2CCc3ccccc32)cc1` [1-24], the logP in data set [1] (setting [2]) stood at 4.51. In addition, the mortality at 500 g/ha in the data set on Myzus persicae (setting [3]) was no less than 80%.
With `CC(NC(=S)N1CCOC1=N[C@H]1CCc2ccccc21)c1ccccc1` (some centres unmarked) [1-29], the log partition coefficient (logP) in data set [1] (setting [2]) was determined as 4.85.
On the same count and under the same terms, the same measure for `S=C(NCc1ccncc1)N1CCOC1=N[C@H]1CCc2ccccc21` [1-43]: 1.87.
With `S=C(NCc1ccc(Cl)cc1)N1CCOC1=N[C@H]1CCc2ccccc21` [1-19], the logP in data set [1] (setting [2]) worked out at 5.02. For the same molecule, the mortality at 500 g/ha in the data set on Myzus persicae (setting [3]) is no less than 80%.
For `CC(NC(=S)N1CCOC1=N[C@H]1CCc2ccccc21)c1ccc(Cl)cc1` (some centres unmarked) [1-34], the logP in data set [1] (setting [2]) came to 5.64. Further, in the data set on Myzus persicae (setting [3]), the mortality at 500 g/ha was no less than 80%.
In the case of `S=C(NCc1ccccc1Cl)N1CCOC1=N[C@H]1CCc2ccccc21` [1-21], the logP in data set [1] (setting [2]) turned out to be 4.97. In addition, the mortality at 500 g/ha with Myzus persicae (setting [3]) is no less than 80%.
On to `S=C(NCc1cccnc1)N1CCOC1=N[C@H]1CCc2ccccc21` [1-44], for which, in data set [1] (setting [2]), the logP turned out to be 2.17. Moreover, the mortality at 500 g/ha in the data set with Myzus persicae (setting [3]) was no less than 80%.

The values are drawn from patent EP1982595A1, “Insecticidal derivatives of substituted aminoheterocycles” (Bayer CropScience AG, priority 2007, dated 2008).
